Measured values published in patent publication US10800778B2 (Entasis Therapeutics Limited, priority 2016, dated 2020).
Counter-ions that a name gives are not always drawn.

Key:
[1] = biological target: TEM-1 (Class A beta-lactamase) (Escherichia coli, UniProt P62593); assay: Inhibition of beta-lactamase enzymes (nitrocefin hydrolysis), TEM-1; format: biochemical; conditions: read-out: Class A TEM-1 60 min IC50, nitrocefin 100 μM
Method: (§1) A buffer consisting of 0.1 M sodium phosphate (pH 7.0), 10 mM NaHCO3, and 0.005% Triton X-100 was used for all enzymes. The chromogenic substrate nitrocefin (SynGene, Bangalore, India) was used at 100 μM. Enzyme activity was monitored by the 490 nm absorbance increase upon nitrocefin hydrolysis. Assays were performed in clear polystyrene 384-well plates (Greiner Bio-One, Monroe, N.C.). Absorbance was measured for 1 hour at 30-s intervals using a Spectramax absorbance plate reader (Molecular Devices, Sunnyvale, Calif.). Measurement of beta-lactamase inhibition by INHIBITOR employed serial 3-fold dilutions of the inhibitor in assay buffer, ranging from 100 μM to 62.7 pM. A background absorbance progress curve for a control lacking enzyme and inhibitor was subtracted from each progress curve.
(§2) The complete set of progress curves for one enzyme with all inhibitor concentrations was subjected to numerical integration with the program Kintek Global Kinetic Explorer (Kintek Corp, Snowshoe Pa.) to obtain a best-fit to the mechanism shown in Scheme 10.
(§3) where E, S, ES, P, I, and EI are the concentrations of the enzyme, nitrocefin, the enzyme-nitrocefin complex, the nitrocefin hydrolysis product, INHIBITOR, and the enzyme-INHIBITOR complex respectively. […] The values of k+2, k+3, and k−3 were fit. Concentration series offsets of the absorbance measurements were used to correct for slight absorbance baseline differences between wells. The parameter k+3 is equivalent to the second order rate constant kinact/Ki. In some cases, the inhibition was in rapid equilibrium on the experimental time scale, so that only the ratio k−3/k+3=Ki could be determined. Although k−3 represents reversal of inhibitor binding in Scheme 10, hydrolysis of the enzyme-inhibitor complex could not be excluded based on kinetic measurements.
(§4) Best-fit absorbance values from the above procedure at each time point for each compound concentration were exported to Excel.
(§5) where A is the best-fit absorbance without inhibitor and Ainhib is the best-fit absorbance in the presence of the inhibitor.
(§6) where [I] is the inhibitor concentration and n is the Hill coefficient. The Excel add-in XLfit (ID Business Solutions) was used for nonlinear regression.

[2] = biological target: OXA-48 (Class D beta-lactamase) (Klebsiella pneumoniae, UniProt Q6XEC0); assay: Inhibition of beta-lactamase enzymes (nitrocefin hydrolysis), OXA-48; format: biochemical; conditions: read-out: Class D OXA-48 60 min IC50, nitrocefin 100 μM
Method: as §1, §2, §3, §4, §5, §6

Sequence of TEM-1 (Class A beta-lactamase) (P62593 whole entry, looked up, species assumed): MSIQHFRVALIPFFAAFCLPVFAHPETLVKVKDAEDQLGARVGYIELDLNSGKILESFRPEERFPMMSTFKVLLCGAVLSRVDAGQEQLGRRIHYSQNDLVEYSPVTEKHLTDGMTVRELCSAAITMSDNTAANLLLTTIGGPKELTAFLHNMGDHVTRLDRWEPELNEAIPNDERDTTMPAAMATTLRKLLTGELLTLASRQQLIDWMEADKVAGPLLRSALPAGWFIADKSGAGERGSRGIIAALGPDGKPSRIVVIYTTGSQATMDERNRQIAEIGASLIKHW
Sequence of OXA-48 (Class D beta-lactamase) (Q6XEC0 whole entry, looked up, species assumed): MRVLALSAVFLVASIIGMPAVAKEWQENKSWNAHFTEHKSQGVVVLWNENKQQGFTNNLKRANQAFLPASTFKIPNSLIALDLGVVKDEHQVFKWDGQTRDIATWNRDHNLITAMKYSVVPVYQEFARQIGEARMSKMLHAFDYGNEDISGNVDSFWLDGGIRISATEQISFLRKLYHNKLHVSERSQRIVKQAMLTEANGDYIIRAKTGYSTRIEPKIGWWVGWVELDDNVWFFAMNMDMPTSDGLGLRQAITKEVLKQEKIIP

Compound	IC50 [1] [nM]	IC50 [2] [nM]
CC1=C[C@@H]2CN(C(=O)N2O[C@@H](F)C(=O)O)[C@@H]1C(=O)NCC#N [Example 82, (2S)-2-fluoro-2-[[(2S,5R)-2-(cyanomethylcarbamoyl)-3-methyl-7-oxo-1,6-diazabicyclo[3.2.1]oct-3-en-6-yl]oxy]acetic acid lithium salt]	85	28
CC1=C[C@@H]2CN(C(=O)N2O[C@@H](F)C(=O)O)[C@@H]1C(=O)NCc1ncco1 [Example 68, (2S)-2-fluoro-2-[[(2S,5R)-3-methyl-2-(oxazol-2-ylmethylcarbamoyl)-7-oxo-1,6-diazabicyclo[3.2.1]oct-3-en-6-yl]oxy]lacetic acid lithium salt]	310	78
CC(=O)NCNC(=O)[C@@H]1C(C)=C[C@@H]2CN1C(=O)N2O[C@@H](F)C(=O)O [Example 88, (2S)-2-fluoro-2-[[(2S,5R)-2-(acetamidomethylcarbamoyl)-3-methyl-7-oxo-1,6-diazabicyclo[3.2.1]oct-3-en-6-yl]oxy]acetic acid lithium salt]	54	45
NC(=O)[C@@H]1C(C2CC2)=C[C@@H]2CN1C(=O)N2O[C@H](F)C(=O)O [Example 41, (2R)-2-(((2S,5R)-2-carbamoyl-3-cyclopropyl-7-oxo-1,6-diazabicyclo[3.2.1]oct-3-en-6-yl)oxy)-2-fluoroacetic acid lithium salt]	3.5	6.4
CC1=C[C@@H]2CN(C(=O)N2OC(C)(F)C(=O)O)[C@@H]1C(N)=O (mixture of isomers) [Example 11, 2-{[(2S,5R)-2-carbamoyl-3-methyl-7-oxo-1,6-diazabicyclo[3.2.1]oct-3-en-6-yl]oxy}-2-fluoropropanoic acid lithium salt (mixture of diastereomers)]	230	22000
CC1=C[C@@H]2CN(C(=O)N2O[C@@H](F)C(=O)O)[C@@H]1C(=O)NCCNS(C)(=O)=O [Example 67, (2S)-2-fluoro-2-[[(2S,5R)-2-[2-(methanesulfonamido)ethylcarbamoyl]-3-methyl-7-oxo-1,6-diazabicyclo[3.2.1]oct-3-en-6-yl]oxy]acetic acid lithium salt]	64	340
CC1=C[C@@H]2CN(C(=O)N2O[C@@H](F)C(=O)O)[C@@H]1C(=O)NCCCS(N)(=O)=O [Example 74, (2S)-2-fluoro-2-[[(2S,5R)-3-methyl-7-oxo-2-(3-sulfamoylpropylcarbamoyl)-1,6-diazabicyclo[3.2.1]oct-3-en-6-yl]oxy]acetic acid lithium salt]	280	590
CC1=C[C@@H]2CN(C(=O)N2OC(F)C(=O)O)[C@@H]1C(=O)NCc1cnccn1 (stereo partly drawn) [Example 30, 2-fluoro-2-(((2S,5R)-3-methyl-7-oxo-2-((pyrazin-2-ylmethyl)carbamoyl)-1,6-diazabicyclo[3.2.1]oct-3-en-6-yl)oxy)acetic acid lithium salt]	81	140
